In patent publication US9757375B2, “Compounds that inhibit human DNA ligases and methods of treating cancer” (University of Maryland, Baltimore, priority 2007, dated 2017):
Where two headings read alike, the source gives them in different places.

What was measured:
human DNA ligase III = target: T1, human DNA ligase III (Homo sapiens, UniProt P49916); assay: High-throughput fluorescence-based DNA joining (ligation) assay; type: biochemical
T1 sequence (P49916 1-862 isoform P49916-4): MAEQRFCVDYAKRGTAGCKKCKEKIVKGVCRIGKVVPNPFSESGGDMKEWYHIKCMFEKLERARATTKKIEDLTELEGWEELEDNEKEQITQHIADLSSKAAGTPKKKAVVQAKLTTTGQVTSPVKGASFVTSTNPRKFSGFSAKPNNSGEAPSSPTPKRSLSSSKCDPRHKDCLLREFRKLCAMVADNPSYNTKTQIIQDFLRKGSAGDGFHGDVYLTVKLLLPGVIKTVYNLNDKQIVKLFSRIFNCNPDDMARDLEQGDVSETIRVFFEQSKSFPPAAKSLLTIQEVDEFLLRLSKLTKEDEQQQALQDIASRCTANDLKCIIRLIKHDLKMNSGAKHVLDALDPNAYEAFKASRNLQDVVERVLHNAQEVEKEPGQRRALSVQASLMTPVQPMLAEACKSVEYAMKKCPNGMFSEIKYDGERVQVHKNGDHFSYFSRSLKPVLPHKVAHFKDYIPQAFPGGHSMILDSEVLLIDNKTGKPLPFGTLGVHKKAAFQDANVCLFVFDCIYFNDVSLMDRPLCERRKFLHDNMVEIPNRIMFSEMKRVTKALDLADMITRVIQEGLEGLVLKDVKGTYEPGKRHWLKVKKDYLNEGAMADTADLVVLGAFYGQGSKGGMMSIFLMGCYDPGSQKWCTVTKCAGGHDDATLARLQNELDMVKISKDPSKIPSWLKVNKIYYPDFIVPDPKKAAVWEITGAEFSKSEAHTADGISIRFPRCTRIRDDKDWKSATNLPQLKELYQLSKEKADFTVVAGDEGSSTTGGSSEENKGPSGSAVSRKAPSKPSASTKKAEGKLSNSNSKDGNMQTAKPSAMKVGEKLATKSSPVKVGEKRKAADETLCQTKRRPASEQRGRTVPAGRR
Source text: (§1) The method for screening compounds comprises testing the compound for the ability to inhibit human DNA ligases I, III and IV with a high throughput fluorescence-based ligation assay. In this assay, phosphodiester bond formation covalently links together two oligonucleotides, one of which is a fluorescent donor AF488 that is 11 nucleotides from the 3′ terminus and the other contains a fluorescence acceptor and quencher, BHQ1 that is 15 nucleotides from the 5′ terminus. When these oligonucleotides are present in separate duplexes and in the same nicked or intact duplex, there is no significant quenching of fluorescence because the donor and acceptor are too far apart. As single-strands neither the AF488 oligonucleotide nor the BHQ1 oligonucleotides have significant secondary structure. However, when these oligonucleotides are ligated together, the resultant single strand forms a stable hairpin structure, in which the AF488 and BHQ1 groups are very close together, resulting in efficient intra-molecular quenching of fluorescence. Thus, in the DNA joining assay, the DNA substrate is denatured after incubation with the DNA ligase and then renatured in the presence of a 20-fold excess of an oligonucleotide that is identical to the ligated strand containing the fluorescent door and acceptor except that it lacks these modifications. Using this assay, DNA joining, which results in reduced fluorescence at 518 nm, can be measured rapidly, quantitatively and with high-throughput using a fluorescence plate reader.
(§2) Applicants developed a novel high throughput fluorescence-based ligation assay by modifying the sequence of the oligos to optimize hairpin formation by the single strand ligated product of the high throughput fluorescence-based ligation assay of Chen et al (22). […] Compound stock solutions, which were 10 mM in 0.5% DMSO, were diluted in 0.5% DMSO. Human DNA ligases I and III were assayed with a nicked DNA substrate whereas as the substrate for human DNA ligase IV was two oligonucleotide duplexes with short complementary single strand ends.

human DNA ligase IV = human DNA ligase IV (Homo sapiens, UniProt P49917); assay: as above; type: biochemical
human DNA ligase IV, sequence (P49917 whole entry): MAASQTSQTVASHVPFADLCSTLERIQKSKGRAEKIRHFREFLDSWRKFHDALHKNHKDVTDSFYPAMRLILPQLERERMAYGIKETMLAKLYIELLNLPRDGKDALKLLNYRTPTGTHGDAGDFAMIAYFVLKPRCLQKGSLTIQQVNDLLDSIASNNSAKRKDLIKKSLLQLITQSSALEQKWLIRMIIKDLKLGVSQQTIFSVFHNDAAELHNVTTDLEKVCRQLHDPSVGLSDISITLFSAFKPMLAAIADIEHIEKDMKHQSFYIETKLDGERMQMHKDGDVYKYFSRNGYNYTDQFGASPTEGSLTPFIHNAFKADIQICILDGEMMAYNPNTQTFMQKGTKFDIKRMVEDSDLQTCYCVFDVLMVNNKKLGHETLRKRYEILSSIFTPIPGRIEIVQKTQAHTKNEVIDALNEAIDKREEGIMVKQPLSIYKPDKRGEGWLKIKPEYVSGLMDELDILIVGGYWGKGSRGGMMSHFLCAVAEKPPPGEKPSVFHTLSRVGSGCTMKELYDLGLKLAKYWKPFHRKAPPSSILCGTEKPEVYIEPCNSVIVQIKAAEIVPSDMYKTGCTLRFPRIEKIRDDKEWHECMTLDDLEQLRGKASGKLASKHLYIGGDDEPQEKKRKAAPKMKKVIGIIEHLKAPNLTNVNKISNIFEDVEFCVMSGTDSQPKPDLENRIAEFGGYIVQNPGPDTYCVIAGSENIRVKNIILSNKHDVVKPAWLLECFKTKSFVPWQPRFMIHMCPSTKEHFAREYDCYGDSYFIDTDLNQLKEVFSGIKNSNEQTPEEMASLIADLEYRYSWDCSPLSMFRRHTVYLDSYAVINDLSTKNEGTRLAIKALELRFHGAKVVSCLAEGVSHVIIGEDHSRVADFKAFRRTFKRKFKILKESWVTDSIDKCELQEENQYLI
human DNA ligase IV, sequence (Q13426 whole entry partner): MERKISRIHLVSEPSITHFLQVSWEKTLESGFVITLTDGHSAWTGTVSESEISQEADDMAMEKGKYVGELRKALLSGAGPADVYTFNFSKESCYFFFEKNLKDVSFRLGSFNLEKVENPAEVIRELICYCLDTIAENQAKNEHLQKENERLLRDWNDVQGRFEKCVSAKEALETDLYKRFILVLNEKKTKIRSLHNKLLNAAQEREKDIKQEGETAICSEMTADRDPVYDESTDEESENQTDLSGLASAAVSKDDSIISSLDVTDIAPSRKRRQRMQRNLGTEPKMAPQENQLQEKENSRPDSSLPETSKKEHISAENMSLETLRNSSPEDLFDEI
Source text: as §1, §2

HCT116 cells [1] = assay: MTT cell growth assay; type: cell-based, human; settings: Homo sapiens, HCT-116
Method: (§3) The activity of hits from the initial screen was further validated using the MTT assay. Briefly, MCF10A and HCT116 cells were seeded in 96 well plates at 300 and 1200 cells per well, respectively, and allowed to adhere overnight. The following day, serial dilutions of compounds in media were added to the cells in a final volume 200 μl. After incubation for 5 days, MTT reagent (3-(4,5-dimthylthiazol-2-yl)-2,5-diphenyltatrazolium) was added and incubation was continued for 4 h. Formazan crystals generated by reduction of the MTT reagent in mitochondria were solubilized with isopropanol prior to the measurement of absorbance at 560 nm wavelength in a plate reader.
After incubation for 5 days, cell growth was measured by the MTT assay (16).

hLigI = target: T2, hLigI (Homo sapiens, UniProt P18858); assay: High-throughput fluorescence-based DNA joining (ligation) assay; type: biochemical
T2 construct: made in house
T2 sequence (P18858 whole entry): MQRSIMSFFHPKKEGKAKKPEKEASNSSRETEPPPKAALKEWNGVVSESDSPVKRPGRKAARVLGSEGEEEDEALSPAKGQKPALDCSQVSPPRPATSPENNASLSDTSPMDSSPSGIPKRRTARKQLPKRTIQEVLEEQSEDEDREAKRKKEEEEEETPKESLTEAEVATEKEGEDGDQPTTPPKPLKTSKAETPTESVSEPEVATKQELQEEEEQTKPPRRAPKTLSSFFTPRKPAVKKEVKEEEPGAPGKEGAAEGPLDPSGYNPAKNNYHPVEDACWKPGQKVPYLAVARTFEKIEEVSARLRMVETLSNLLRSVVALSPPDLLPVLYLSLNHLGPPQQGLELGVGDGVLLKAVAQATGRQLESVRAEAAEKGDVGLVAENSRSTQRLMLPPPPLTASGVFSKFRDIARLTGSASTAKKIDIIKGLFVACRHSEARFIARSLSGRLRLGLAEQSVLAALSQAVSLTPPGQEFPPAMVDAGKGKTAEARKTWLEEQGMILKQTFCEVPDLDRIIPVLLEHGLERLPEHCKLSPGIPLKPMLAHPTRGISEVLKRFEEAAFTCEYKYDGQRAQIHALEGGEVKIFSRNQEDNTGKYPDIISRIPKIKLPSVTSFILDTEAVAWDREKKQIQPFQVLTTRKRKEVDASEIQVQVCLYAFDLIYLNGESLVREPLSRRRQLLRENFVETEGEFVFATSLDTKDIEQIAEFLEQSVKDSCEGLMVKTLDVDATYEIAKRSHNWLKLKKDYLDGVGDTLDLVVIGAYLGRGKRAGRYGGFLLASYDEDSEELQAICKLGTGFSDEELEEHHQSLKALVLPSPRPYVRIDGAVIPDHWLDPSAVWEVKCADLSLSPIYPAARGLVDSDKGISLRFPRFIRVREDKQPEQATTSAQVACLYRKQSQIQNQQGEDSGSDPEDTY
Method: (§4) Candidate ligase inhibitors identified by CADD were assayed for their ability to inhibit hLigI and T4 DNA ligase using a high-throughput, fluorescence energy transfer-based DNA joining assay (22). Duplicate reactions (30 μL) containing 10 pmol of nicked DNA substrate and either 0.25 pmol of hLigI or 10 units of T4 DNA ligase were incubated in the presence or absence of 100 μmol/L of the putative inhibitor. DNA binding by the candidate DNA ligase inhibitors was measured by displacement of ethidium bromide from DNA as previously described (30).
as §1, §2

HCT116 cells [2] = assay: Screen for potentiation of DNA damaging agents (MMS, camptothecin, cis-platinum, 3 aminobenzamide, ionizing radiation); type: cell-based, human; settings: compound alone vs combination with MMS (100 μM); 1 = no sensitization
Source text: The 192 human DNA ligase inhibitors were screened in parallel for effects on proliferation and the ability to potentiate the effects of several DNA damaging agents using two cell human lines, a colon cancer line HCT116 and a normal breast epithelial cell line MCF10A using a Biomek FX Laboratory Automation Workstation as described (23). The DNA damaging agents used, methyl methanesulfonate (MMS), camptothecin, cis-platinum, 3 aminobenzamide and ionizing radiation, are representatives of classes of agents used to treat cancer. Briefly, HCT116 and MCF10A cells were plated in 96 well plates such that the cultures were about 80% confluent after 5 days incubation. Compounds were added to the cultures at either 15 μM or 50 μM 1 day after plating. After incubation for 3 days, cell lysed in a solution containing 1.2% Igepal CA-630 and SYBR green that stains DNA (1:1000, Molecular Probes, Eugene, Oreg.). Subsequently, fluorescence was measured per well. The studies with DNA damaging agents were performed as follows. […] For ionizing radiation, cells were pre-incubated with the compounds at 50 μM for 1 hour prior to exposure to 2 gray of ionizing radiation. Cultures were incubated for 3 days and then treated as above.

MCF10A cells = assay: MTT cell growth assay; type: cell-based, human; settings: Homo sapiens, MCF-10A; sections 'high concentrations (~50 μM)' and 'active in vitro that decreased cell growth'; same figures given in μM elsewhere in Table 6; read-out: IC50 MCF10A (head without unit)
Method: as §3
To extend the results of the […] cell culture screening assay, a subset of compounds were tested in larger cultures. Different concentrations of Compounds 67 and 151 were added to asynchronous subconfluent populations of HCT116 and MCF10A cells. Asynchronous subconfluent populations of HCT116 and MCF10A cells were pre-treated with different concentrations of compound 64 prior to the addition of 3 aminobenzamide (2 mM) MMS (100 μM) or cis-platinum (1 μM). After incubation for 5 days, cell growth was measured by the MTT assay (16).

[3] = tested on: MCF7, HCT116, HeLa, and MCF10A cells; assay: Survival assay on cell panel (FIG. 9); type: cell-based, human; settings: Homo sapiens; cell line not stated
Source text: FIG. 9. […] A, effect of L67 (left) and L189 (right) on the survival of MCF7 (Δ), HCT116 (□), HeLa (⋄), and MCF10A (upsidedown triangle) cells. B, normal breast epithelial MCF10A cells (open symbols) and breast cancer MCF7 cells (filled symbols) in the absence (circles) or presence of 3 μmol/L of L67 (squares) were exposed to increasing concentrations of MMS (left). Normal breast epithelial MCF10A cells (open symbols) and colon cancer HCT116 cells (filled symbols) in the absence (circles) or presence of 20 μmol/L of L189 (squares) were exposed to increasing doses of ionizing radiation (right). C, hLigI (I), hLigIIIα (III), and hLigIV (IV) were detected in extracts (400 μg) of the indicated cell lines by immunoblotting. To control for extract loading β-actin was also detected by immunoblotting.
For survival assays, cells were plated in 6 well plates and grown either in the absence or presence of ligase inhibitors. Where indicated, either MMS (0-50 μM) was added to the medium or the cells were irradiated in a Cs-137 irradiator (0-2.5 Gy). After two weeks, colonies were stained with crystal violet (Sigma) and then counted.

T4 DNA ligase = target: T3, T4 DNA ligase (Enterobacteria phage T4, UniProt P00970); assay: High-throughput fluorescence-based DNA joining assay, non-specific inhibitor control; type: biochemical, bacteriophage T4; settings: 100 μM; read-out: In vitro % inhib T4 100
T3 construct: purchased NEB
T3 sequence (P00970 1-487): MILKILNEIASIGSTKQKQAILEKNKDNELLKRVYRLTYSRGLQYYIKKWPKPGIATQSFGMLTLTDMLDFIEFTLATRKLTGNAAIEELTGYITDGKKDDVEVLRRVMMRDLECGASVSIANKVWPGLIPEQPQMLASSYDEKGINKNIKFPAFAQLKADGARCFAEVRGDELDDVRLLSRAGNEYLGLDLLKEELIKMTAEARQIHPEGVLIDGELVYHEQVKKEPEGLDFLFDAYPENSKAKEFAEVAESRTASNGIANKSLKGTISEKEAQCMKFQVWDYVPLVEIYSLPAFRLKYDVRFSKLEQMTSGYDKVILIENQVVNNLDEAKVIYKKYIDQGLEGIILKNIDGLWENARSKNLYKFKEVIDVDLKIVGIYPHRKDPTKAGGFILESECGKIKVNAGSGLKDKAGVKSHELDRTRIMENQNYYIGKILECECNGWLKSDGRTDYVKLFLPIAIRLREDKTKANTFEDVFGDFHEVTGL
Method: as §4
In addition, to identify compounds that may be non-specific inhibitors of DNA joining, the 192 compounds were also assayed for their ability to inhibit bacteriophage T4 DNA ligase, an enzyme that utilizes the same reaction mechanism as hLigI, has similar adenylation and OB-fold domains but lacks a DBD domain. (6) Although this is also an ATP-dependent DNA ligase, it lacks the domain containing the binding pocket targeted by the in silico screen. Compounds that inhibited T4 DNA ligase were eliminated as non-specific inhibitors that most likely bind to the DNA.

Row | SMILES | inhibition at 100 µM (human DNA ligase III; read-out: % of inhibition @ 100 μM (Helen's data) hLigIII) | inhibition at 100 µM (human DNA ligase IV; read-out: % of inhibition @ 100 μM (Helen's data) hLigIV) | IC50 (HCT116 cells [1]; cell growth, compound alone, read-out: IC50 (μM) HCT116) | IC50 (HCT116 cells [1]; sections 'high concentrations (~50 μM)' and 'active in vitro that decreased cell growth', same figures given in μM elsewhere in Table 6, read-out: IC50 HCT116 (head without unit)) | inhibition at 100 µM (hLigI; read-out: % of inhibition @ 100 μM (Helen's data) hLigI) | MMS: Ratios of IC50 HCT116 (HCT116 cells [2]) | IC50 (MCF10A cells) | inhibition at 100 µM (human DNA ligase III; 100 μM, read-out: In vitro % inhib hLigIII 100) | inhibition at 100 µM (human DNA ligase III; 100 uM, Ø not defined (0 in Table 5A), read-out: % activity Inhibition hLigIII 100 uM) | inhibition of human DNA ligase III, in words (human DNA ligase III; in vitro screen) | inhibition at 100 µM (human DNA ligase IV; read-out: In vitro % inhib hLigIV 100) | % activity Inhibition hLigIV 100 uM (human DNA ligase IV; 100 uM, Ø not defined (0 in Table 5A)) | % activity Inhibition hLigI 100 uM (hLigI; 100 uM) | inhibition at 100 µM (hLigI; read-out: In vitro % inhib hLigI 100) | EC50 [3] | inhibition at 100 µM (T4 DNA ligase)
1 | O=C(COC(=O)c1ccc2ccccc2c1O)c1cccs1 [Compound 214] | 42% | 40% | 10 to 50 µM | 10 to 50 µM | < 20% | ID (2) | > 50 µM | – | – | – | – | – | – | – | – | –
2 | N#Cc1cn(CCCCCCCc2[nH]c(=O)[nH]c(=O)c2C#N)c(=O)[nH]c1=O [Compound 209] | – | – | – | – | – | – | – | 71 ± 3% | 70.5 ± 2.6% | specific for DNA ligase III | 0% | Ø | Ø | 0% | > 100 µM | 0%
